Species: Rattus norvegicus
Assay: Open TG-GATES - Regimen: Single
Format: toxicity, organism-based, Sprague-Dawley
Design: regimen Single, gender Male, age 6 weeks
Conditions: in vivo, po, 0 mg/kg, route gavage, dose level Control; for APTT / Bas / Eos / Fbg / Hb / Ht / Lym / MCH / MCHC / Mono / Neu / Plat / RBC / Ret / WBC: tissue Blood; for KIDNEY_L / KIDNEY_R / KIDNEY_TOTAL: tissue Kidney; for LIVER: tissue Liver; for ALP / ALT / AST / BUN / CRE / Ca / Cl / DBIL / GLC / IP / K / LDH / Na / PL / RALB / TBIL / TC / TG / TP / gamma-GTP: tissue Plasma

## O=C(CCCN1CCC(O)(c2ccc(Cl)cc2)CC1)c1ccc(F)cc1 [HALOPERIDOL]
3 h
  TERMINAL_BW: 208.8 g
  APTT: 16.5 s
  Bas: 0%
  Eos: 0%
  Fbg: 202 mg/dL
  Hb: 13.4 g/dL
  Ht: 40.2%
  Lym: 77.8%
  MCH: 21.8 pg
  MCHC: 33.5%
  Mono: 9.2%
  Neu: 13%
  Plat: 94.5 x10_4/uL
  RBC: 616.8 x10_4/ul
  Ret: 8.7%
  WBC: 114.5 x10_2/uL
  KIDNEY_L: 1 g
  KIDNEY_R: 1 g
  KIDNEY_TOTAL: 2 g
  LIVER: 10.1 g
  ALP: 1053.2 IU/L
  ALT: 34.4 IU/L
  AST: 64.4 IU/L
  BUN: 16 mg/dL
  CRE: 0.5 mg/dL
  Ca: 11.4 mg/dL
  Cl: 105 meq/L
  DBIL: 0.006 mg/dL
  GLC: 185.6 mg/dL
  IP: 9.4 mg/dL
  K: 5.2 meq/L
  LDH: 85 IU/L
  Na: 139 meq/L
  PL: 151.4 mg/dL
  RALB: 3.7 g/dL
  TBIL: 0.4 mg/dL
  TC: 82.8 mg/dL
  TG: 63.2 mg/dL
  TP: 5.6 g/dL
  gamma-GTP: 1.4 IU/L
6 h
  TERMINAL_BW: 200.9 g
  APTT: 16.6 s
  Bas: 0%
  Eos: 0.2%
  Fbg: 206.4 mg/dL
  Hb: 13.6 g/dL
  Ht: 40.6%
  Lym: 72%
  MCH: 21.7 pg
  MCHC: 33.4%
  Mono: 5.8%
  Neu: 22%
  Plat: 102.2 x10_4/uL
  RBC: 625.8 x10_4/ul
  Ret: 8.8%
  WBC: 95.9 x10_2/uL
  KIDNEY_L: 0.9 g
  KIDNEY_R: 1 g
  KIDNEY_TOTAL: 1.9 g
  LIVER: 9.3 g
  ALP: 862.2 IU/L
  ALT: 34.8 IU/L
  AST: 62 IU/L
  BUN: 11.4 mg/dL
  CRE: 0.5 mg/dL
  Ca: 10.7 mg/dL
  Cl: 104.8 meq/L
  DBIL: 0.036 mg/dL
  GLC: 175.2 mg/dL
  IP: 10.1 mg/dL
  K: 5.1 meq/L
  LDH: 92.4 IU/L
  Na: 137.6 meq/L
  PL: 142.8 mg/dL
  RALB: 3.7 g/dL
  TBIL: 0.3 mg/dL
  TC: 80.2 mg/dL
  TG: 47.8 mg/dL
  TP: 5.6 g/dL
  gamma-GTP: 1.4 IU/L
9 h
  TERMINAL_BW: 199.3 g
  APTT: 16.7 s
  Bas: 0%
  Eos: 0.8%
  Fbg: 205.4 mg/dL
  Hb: 13.7 g/dL
  Ht: 41%
  Lym: 68.6%
  MCH: 22.1 pg
  MCHC: 33.3%
  Mono: 6.6%
  Neu: 24%
  Plat: 103.6 x10_4/uL
  RBC: 619.2 x10_4/ul
  Ret: 8.3%
  WBC: 96.1 x10_2/uL
  KIDNEY_L: 0.9 g
  KIDNEY_R: 0.9 g
  KIDNEY_TOTAL: 1.8 g
  LIVER: 8.6 g
  ALP: 860.2 IU/L
  ALT: 32.6 IU/L
  AST: 59.8 IU/L
  BUN: 12.2 mg/dL
  CRE: 0.5 mg/dL
  Ca: 10.5 mg/dL
  Cl: 106.2 meq/L
  DBIL: 0.024 mg/dL
  GLC: 188.4 mg/dL
  IP: 10.8 mg/dL
  K: 5.1 meq/L
  LDH: 83.8 IU/L
  Na: 138 meq/L
  PL: 134.4 mg/dL
  RALB: 3.8 g/dL
  TBIL: 0.4 mg/dL
  TC: 76.8 mg/dL
  TG: 35.4 mg/dL
  TP: 5.5 g/dL
  gamma-GTP: 1.8 IU/L
24 h
  TERMINAL_BW: 214.4 g
  APTT: 16.2 s
  Bas: 0%
  Eos: 0.8%
  Fbg: 205.8 mg/dL
  Hb: 13.3 g/dL
  Ht: 39.3%
  Lym: 75.4%
  MCH: 22 pg
  MCHC: 33.9%
  Mono: 6.8%
  Neu: 17%
  Plat: 107.6 x10_4/uL
  RBC: 605.8 x10_4/ul
  Ret: 8.9%
  WBC: 82.8 x10_2/uL
  KIDNEY_L: 0.9 g
  KIDNEY_R: 1 g
  KIDNEY_TOTAL: 1.9 g
  LIVER: 10.6 g
  ALP: 1093.2 IU/L
  ALT: 43 IU/L
  AST: 64.8 IU/L
  BUN: 19.2 mg/dL
  CRE: 0.6 mg/dL
  Ca: 11 mg/dL
  Cl: 104.6 meq/L
  DBIL: 0.028 mg/dL
  GLC: 185.4 mg/dL
  IP: 8.2 mg/dL
  K: 4.9 meq/L
  LDH: 82.6 IU/L
  Na: 138.8 meq/L
  PL: 165.4 mg/dL
  RALB: 3.7 g/dL
  TBIL: 0.4 mg/dL
  TC: 87.2 mg/dL
  TG: 94.8 mg/dL
  TP: 5.7 g/dL

From ChEMBL document CHEMBL3885861, “Open TG-GATES”
